# ChEMBL document CHEMBL1201862, “PubChem BioAssay data set” (2004)
# Active and inactive are the calls of the source.
# How the values were obtained:
# [1] = biological target: T1, Alkaline phosphatase, tissue-nonspecific isozyme (Homo sapiens, UniProt P05186); test: human TNAP enzyme inhibitors, SAR follow-up, biochemical, luminescent, dose response (AID 1056)
# T1 sequence (P05186 whole entry): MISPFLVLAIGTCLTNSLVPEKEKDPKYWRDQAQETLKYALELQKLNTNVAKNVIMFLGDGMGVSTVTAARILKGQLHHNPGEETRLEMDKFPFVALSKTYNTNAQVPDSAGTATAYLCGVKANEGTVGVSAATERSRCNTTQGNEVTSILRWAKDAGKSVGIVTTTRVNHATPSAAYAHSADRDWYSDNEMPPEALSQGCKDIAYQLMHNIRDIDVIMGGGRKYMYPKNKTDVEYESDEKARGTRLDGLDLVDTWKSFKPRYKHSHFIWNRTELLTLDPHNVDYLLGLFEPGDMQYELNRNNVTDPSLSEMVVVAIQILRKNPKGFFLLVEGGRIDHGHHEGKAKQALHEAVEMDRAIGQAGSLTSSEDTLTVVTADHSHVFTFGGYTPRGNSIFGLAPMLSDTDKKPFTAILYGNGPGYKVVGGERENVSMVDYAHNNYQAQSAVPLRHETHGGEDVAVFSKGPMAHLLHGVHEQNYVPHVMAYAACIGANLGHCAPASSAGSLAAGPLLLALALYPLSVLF
# Cytochrome P450 3A4 = Cytochrome P450 3A4 (Homo sapiens, UniProt P08684);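 note: CYP3A4 tested as one member of a cytochrome P450 panel screen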
# [2] = HEp-2 cell cytotoxicity, dose response, cytotoxicity control for RSV inhibitor project, HTS (AID 2410); format: functional; conditions: human respiratory syncytial virus
# [3] = test system: Streptococcus sp. 'group A'; test: growth inhibition of control SK(-) GAS strain, dose response, counter-screen for streptokinase expression inhibitor project, luminescence, kanamycin, BacTiterGlo, confirmation (AID 1900); format: functional, organism-based
# Streptococcus = test: Group A Streptococcus viability loss, dose response, counter-screen for streptokinase expression inhibitor project, luminescence, BacTiterGlo (AID 1915); format: functional, organism-based;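 note: potency for reduction of bacterial viability or growth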
# CHO-K1 = test: (§1) Counterscreen for antagonists of the orexin 1 receptor (OX1R; HCRTR1): Homogeneous time resolved fluorescence (HTRF)-based cell-based dose response assay to identify antagonists of the parental CHO-K1 cell line. [Related pubchem assays (depositor defined):AID434989, AID435008, AID463079, AID485270, AID492963, AID492964, AID492965, AID493232, AID504699, AID504701]; format: functional; conditions: Cricetulus griseus
# [4] = as §1, with “Fluorescence-based” for “Homogeneous time resolved fluorescence (HTRF)-based”, “cell-based high throughput” for “cell-based”, “CHO” for “CHO-K1”; format: functional
# [5] = biological target: T2, Orexin/Hypocretin receptor type 1 (Homo sapiens, UniProt O43613); test: Homogeneous Time Resolved Fluorescence (HTRF)-based cell-based high throughput dose response assay for antagonists of the orexin 1 receptor (OX1R; HCRTR1). [Related pubchem assays (depositor defined):AID434989, AID435008, AID463079, AID485270, AID492963, AID492964, AID492965, AID493232, AID504717, AID504718]; format: functional
# T2 sequence (O43613 whole entry): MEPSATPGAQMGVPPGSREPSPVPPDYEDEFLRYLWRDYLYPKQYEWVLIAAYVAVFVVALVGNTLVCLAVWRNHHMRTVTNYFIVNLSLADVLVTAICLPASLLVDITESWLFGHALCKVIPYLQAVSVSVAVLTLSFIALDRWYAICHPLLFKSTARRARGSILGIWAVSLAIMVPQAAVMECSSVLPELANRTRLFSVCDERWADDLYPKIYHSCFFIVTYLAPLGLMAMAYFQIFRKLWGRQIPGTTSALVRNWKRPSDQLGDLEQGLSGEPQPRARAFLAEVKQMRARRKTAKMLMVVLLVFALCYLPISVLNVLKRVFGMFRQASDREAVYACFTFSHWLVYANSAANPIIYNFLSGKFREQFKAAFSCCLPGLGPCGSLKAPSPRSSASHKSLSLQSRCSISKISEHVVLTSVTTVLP
# [6] = biological target: T2, Orexin/Hypocretin receptor type 1; test: Fluorescence-based cell-based high throughput dose response assay for antagonists of the orexin 1 receptor (OX1R; HCRTR1). [Related pubchem assays (depositor defined):AID434989, AID435008, AID463079, AID485270, AID492963, AID492964, AID492965, AID493232, AID504717, AID504718]; format: functional
# BJ [7] = test: cytotoxicity toward BJ-TERT fibroblasts, dose response, cell-based, RAS-independent, luminescence (AID 1933); format: functional; conditions: Homo sapiens
# [8] = biological target: T3, Heat shock factor protein 1 (Mus musculus, UniProt P38532); test: inhibition of MG132-induced HSE-luciferase signal, confirmation, cell-based, NIH3T3, luminescence, dose retest (AID 2382); format: functional;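 note: NIH3T3 fibroblasts with HSF1-driven luciferase reporter stressed by proteasome inhibitor MG132; luminescence from HSF1-driven luciferase expression after 8 hours of MG132 stress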
# T3 sequence (P38532 whole entry): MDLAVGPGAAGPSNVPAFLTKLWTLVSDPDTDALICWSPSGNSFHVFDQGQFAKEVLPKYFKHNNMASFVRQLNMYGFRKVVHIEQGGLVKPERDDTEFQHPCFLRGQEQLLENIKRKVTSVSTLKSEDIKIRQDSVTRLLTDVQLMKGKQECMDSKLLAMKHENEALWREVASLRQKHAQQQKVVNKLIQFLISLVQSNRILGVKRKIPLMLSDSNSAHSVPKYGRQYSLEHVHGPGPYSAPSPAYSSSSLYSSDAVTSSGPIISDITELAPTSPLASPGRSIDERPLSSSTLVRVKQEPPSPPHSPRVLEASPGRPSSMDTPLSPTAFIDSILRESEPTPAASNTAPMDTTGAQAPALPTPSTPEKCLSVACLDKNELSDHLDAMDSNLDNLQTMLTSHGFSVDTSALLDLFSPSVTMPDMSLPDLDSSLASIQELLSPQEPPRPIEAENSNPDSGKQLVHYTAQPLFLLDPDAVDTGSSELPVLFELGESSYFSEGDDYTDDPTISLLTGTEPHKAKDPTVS
# BJ [9] = test: cells; format: functional, cell-based; conditions: Homo sapiens
# BJ [10] = test: cytotoxicity toward BJ-TERT-LT-ST fibroblasts, dose response, cell-based, RAS-independent, luminescence (AID 1935); format: functional; conditions: Homo sapiens;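 note: BJ fibroblasts immortalized with TERT plus LT and ST oncogenes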
# [11] = cytotoxicity toward DRD oncogenic fibroblasts, dose response, cell-based, non-viral oncogenic, luminescence (AID 1934); format: functional; conditions: Homo sapiens
# [12] = biological target: T4, Microphthalmia-associated transcription factor (Homo sapiens, UniProt O75030); test: TRPM1 promoter luciferase signal decrease, dose response, MITF inhibitor project, cell-based, SK-MEL-5, cherry-picked, set 3 (AID 493073); format: functional
# T4 sequence (O75030 whole entry): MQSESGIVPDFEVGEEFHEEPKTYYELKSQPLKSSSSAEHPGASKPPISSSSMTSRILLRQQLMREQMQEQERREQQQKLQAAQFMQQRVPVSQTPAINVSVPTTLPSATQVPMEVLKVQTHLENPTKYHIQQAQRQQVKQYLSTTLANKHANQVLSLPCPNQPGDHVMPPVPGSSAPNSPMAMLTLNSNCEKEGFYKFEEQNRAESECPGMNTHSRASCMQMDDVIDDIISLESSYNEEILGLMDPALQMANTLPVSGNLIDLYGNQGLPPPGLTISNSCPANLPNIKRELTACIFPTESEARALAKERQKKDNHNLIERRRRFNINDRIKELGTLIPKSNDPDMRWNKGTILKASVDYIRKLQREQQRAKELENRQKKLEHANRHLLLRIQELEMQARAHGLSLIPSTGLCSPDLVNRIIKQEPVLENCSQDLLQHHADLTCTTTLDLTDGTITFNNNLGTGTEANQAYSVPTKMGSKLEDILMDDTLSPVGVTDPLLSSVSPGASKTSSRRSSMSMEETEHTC
# A-375 = test: A375 melanoma cell viability reduction, dose response, counter-screen for MITF modulator project, cherry-pick samples, set 2 (AID 540335); format: functional, cell-based; conditions: Homo sapiens
# [13] = biological target: T5, G-protein coupled receptor 55 (Homo sapiens, UniProt Q9Y2T6); test: GPR55 agonists via beta-arrestin recruitment, primary screen, imaging, U2OS cells, beta-arrestin-GFP redistribution (AID 1961); format: functional
# Cannabinoid receptor 2 [14] = biological target: T6, Cannabinoid receptor 2 (Homo sapiens, UniProt P34972); test: SAR analysis of antagonists of the Cannabinoid Receptor 2 using an Image-Based Assay - Set 2. [Related pubchem assays (depositor defined):AID1961, AID1965]; format: functional
# Cannabinoid receptor 2 [15] = biological target: T6, Cannabinoid receptor 2; test: SAR analysis of agonists of the Cannabinoid Receptor 2 using an Image-Based Assay - Set 2. [Related pubchem assays (depositor defined):AID1961, AID1965]; format: functional
# [16] = biological target: T5, G-protein coupled receptor 55; test: SAR analysis of selective Agonists of GPR55 using an Image-Based Assay. [Related pubchem assays (depositor defined):AID1961, AID1965]; format: functional
# Cannabinoid receptor 1 = Cannabinoid receptor 1 (Homo sapiens, UniProt P21554); test: SAR analysis of antagonists of the Cannabinoid Receptor 1 using an Image-Based Assay. [Related pubchem assays (depositor defined):AID1961, AID1965]; format: functional
# Troponin, cardiac muscle = Troponin, cardiac muscle (Homo sapiens, UniProt P19429+P45379+P63316); test: Fluorescence-based biochemical high throughput dose response assay for activators of the calcium sensitivity of cardiac Regulated Thin Filaments (RTF). [Related pubchem assays (depositor defined):AID493008, AID493018, AID504382, AID504383]; format: protein-complex assay
# [17] = biological target: Glyceraldehyde-3-phosphate dehydrogenase (Homo sapiens, UniProt P04406)
# [18] = biological target: T5, G-protein coupled receptor 55; test: GPR55 antagonists blocking LPI-driven arrestin recruitment, primary screen, imaging, U2OS, beta-arrestin-GFP, LPI agonist (AID 2013); format: functional;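 note: antagonist potency measured as reduced agonist-driven arrestin aggregation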
# [19] = Luminescence Cell-Based Dose Retest to Confirm Inhibitors of Cancer Stem Cells. [Related pubchem assays (depositor defined):AID2717, AID2721]; format: functional; conditions: Homo sapiens
# Beta-lactamase [20] = biological target: Beta-lactamase (Salmonella choleraesuis (strain SC-B67), UniProt Q5J463); test: Epi-absorbance-based counterscreen for selective VIM-2 inhibitors: dose response biochemical high throughput screening assay to identify inhibitors of TEM-1 serine-beta-lactamase.
# Beta-lactamase [21] = biological target: T7, Beta-lactamase (Pseudomonas aeruginosa, UniProt Q79MP6); test: IMP-1 metallo-beta-lactamase inhibitors, dose response, selectivity assay for VIM-2 inhibitor project, biochemical, epi-absorbance (AID 1920)
# Beta-lactamase [22] = biological target: T7, Beta-lactamase; test: […] counterscreen for selective VIM-2 inhibitors: dose response biochemical high throughput screening assay to identify inhibitors of IMP-1 metallo-beta-lactamase.
# [23] = biological target: DNA dC->dU-editing enzyme APOBEC-3A (Homo sapiens, UniProt P31941); test: APOBEC3A DNA deaminase inhibitors, dose response, biochemical (AID 504722); format: functional
# [24] = biological target: DNA dC->dU-editing enzyme APOBEC-3G (Homo sapiens, UniProt Q9HC16); test: Dose Response confirmation of small molecule APOBEC3G DNA Deaminase Inhibitors via a fluorescence-based single-stranded DNA deaminase assay. [Related pubchem assays (depositor defined):AID493012, AID493028]; format: functional
# [25] = biological target: FAD-linked sulfhydryl oxidase ALR (Homo sapiens, UniProt P55789); test: inhibitors of human ALR sulfhydryl oxidase, dose response, biochemical, H2O2 detection, luminescence, cherry-pick (AID 493248)
# FAD-linked sulfhydryl oxidase ALR, sequence (P55789 whole entry): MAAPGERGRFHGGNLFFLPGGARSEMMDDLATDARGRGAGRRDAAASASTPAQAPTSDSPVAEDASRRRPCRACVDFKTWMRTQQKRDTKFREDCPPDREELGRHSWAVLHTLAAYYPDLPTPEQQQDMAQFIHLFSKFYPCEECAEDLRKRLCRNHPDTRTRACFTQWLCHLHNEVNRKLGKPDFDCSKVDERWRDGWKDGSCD
# T5 sequence (Q9Y2T6 whole entry): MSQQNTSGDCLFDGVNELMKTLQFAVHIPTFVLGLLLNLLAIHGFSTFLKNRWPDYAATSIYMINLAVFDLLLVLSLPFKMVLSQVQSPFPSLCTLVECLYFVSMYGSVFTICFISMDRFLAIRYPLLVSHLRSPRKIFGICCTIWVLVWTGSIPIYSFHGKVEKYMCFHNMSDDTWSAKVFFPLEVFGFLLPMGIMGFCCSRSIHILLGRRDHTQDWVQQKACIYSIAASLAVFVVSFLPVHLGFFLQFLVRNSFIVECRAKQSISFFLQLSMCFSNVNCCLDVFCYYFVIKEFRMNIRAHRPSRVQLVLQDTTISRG
# T6 sequence (P34972 whole entry): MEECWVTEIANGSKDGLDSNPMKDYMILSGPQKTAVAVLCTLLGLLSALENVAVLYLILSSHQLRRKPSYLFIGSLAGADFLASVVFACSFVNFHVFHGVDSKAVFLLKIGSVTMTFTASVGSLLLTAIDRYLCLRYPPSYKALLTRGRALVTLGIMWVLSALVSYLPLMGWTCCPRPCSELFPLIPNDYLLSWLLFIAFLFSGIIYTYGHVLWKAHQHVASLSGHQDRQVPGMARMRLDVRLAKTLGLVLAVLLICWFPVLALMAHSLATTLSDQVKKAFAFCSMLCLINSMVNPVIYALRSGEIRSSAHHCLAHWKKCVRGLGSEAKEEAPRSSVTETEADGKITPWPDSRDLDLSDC
# Cytochrome P450 3A4, sequence (P08684 whole entry): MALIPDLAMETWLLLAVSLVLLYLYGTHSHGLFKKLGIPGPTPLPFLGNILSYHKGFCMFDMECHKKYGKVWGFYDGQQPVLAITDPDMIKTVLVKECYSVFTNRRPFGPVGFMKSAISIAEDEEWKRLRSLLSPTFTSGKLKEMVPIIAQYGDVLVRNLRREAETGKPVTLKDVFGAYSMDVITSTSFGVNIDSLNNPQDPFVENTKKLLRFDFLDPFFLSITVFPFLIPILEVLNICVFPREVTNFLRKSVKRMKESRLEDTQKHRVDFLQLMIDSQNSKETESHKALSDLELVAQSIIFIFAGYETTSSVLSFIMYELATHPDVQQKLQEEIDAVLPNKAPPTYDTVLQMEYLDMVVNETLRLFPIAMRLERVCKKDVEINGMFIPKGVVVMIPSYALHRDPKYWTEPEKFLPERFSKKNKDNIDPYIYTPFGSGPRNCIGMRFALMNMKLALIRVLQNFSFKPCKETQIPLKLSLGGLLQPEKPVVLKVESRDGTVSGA
# T7 sequence (Q79MP6 whole entry): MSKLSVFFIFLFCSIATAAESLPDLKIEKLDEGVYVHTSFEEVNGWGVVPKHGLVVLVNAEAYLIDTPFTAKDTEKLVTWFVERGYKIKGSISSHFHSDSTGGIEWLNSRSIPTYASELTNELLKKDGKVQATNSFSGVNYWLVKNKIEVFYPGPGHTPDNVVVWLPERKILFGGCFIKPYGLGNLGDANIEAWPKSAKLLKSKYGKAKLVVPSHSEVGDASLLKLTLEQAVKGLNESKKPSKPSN
# Cannabinoid receptor 1, sequence (P21554 whole entry): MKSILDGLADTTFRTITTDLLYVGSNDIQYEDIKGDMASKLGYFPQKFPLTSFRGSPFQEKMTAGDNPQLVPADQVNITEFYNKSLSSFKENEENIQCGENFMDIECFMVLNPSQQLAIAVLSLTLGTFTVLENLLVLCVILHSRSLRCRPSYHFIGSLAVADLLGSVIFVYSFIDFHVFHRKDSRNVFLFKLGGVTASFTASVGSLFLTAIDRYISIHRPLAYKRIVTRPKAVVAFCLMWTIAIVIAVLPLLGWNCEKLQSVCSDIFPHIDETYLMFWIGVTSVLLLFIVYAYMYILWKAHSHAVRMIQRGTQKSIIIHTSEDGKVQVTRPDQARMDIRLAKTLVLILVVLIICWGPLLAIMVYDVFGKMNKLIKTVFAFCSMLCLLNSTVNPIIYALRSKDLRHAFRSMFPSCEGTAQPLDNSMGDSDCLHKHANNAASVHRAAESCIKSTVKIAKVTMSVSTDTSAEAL
# DNA dC->dU-editing enzyme APOBEC-3A, sequence (P31941 whole entry): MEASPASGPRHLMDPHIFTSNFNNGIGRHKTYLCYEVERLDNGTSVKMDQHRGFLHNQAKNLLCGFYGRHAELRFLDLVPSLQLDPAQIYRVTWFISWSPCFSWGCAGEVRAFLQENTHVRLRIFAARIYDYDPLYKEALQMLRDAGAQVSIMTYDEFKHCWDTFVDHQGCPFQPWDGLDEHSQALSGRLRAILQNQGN
# Glyceraldehyde-3-phosphate dehydrogenase, sequence (P04406 whole entry): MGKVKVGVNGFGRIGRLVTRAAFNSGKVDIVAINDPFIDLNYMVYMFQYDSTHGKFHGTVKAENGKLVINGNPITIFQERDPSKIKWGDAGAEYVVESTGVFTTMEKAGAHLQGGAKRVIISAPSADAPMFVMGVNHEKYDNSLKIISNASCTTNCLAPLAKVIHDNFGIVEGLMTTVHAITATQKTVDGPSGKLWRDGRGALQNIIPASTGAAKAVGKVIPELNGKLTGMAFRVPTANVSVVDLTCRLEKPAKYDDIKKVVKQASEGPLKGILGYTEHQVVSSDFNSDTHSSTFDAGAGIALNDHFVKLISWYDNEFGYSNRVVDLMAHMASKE
# Beta-lactamase (Salmonella choleraesuis (strain SC-B67), UniProt Q5J463), sequence (Q5J463 whole entry): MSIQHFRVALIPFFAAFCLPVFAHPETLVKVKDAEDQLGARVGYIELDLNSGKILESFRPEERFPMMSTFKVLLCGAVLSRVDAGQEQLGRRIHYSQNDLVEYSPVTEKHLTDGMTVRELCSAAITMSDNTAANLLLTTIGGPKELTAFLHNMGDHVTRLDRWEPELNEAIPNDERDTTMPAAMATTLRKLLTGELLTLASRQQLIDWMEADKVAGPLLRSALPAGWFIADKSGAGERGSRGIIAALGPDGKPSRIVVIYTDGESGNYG
# DNA dC->dU-editing enzyme APOBEC-3G, sequence (Q9HC16 whole entry): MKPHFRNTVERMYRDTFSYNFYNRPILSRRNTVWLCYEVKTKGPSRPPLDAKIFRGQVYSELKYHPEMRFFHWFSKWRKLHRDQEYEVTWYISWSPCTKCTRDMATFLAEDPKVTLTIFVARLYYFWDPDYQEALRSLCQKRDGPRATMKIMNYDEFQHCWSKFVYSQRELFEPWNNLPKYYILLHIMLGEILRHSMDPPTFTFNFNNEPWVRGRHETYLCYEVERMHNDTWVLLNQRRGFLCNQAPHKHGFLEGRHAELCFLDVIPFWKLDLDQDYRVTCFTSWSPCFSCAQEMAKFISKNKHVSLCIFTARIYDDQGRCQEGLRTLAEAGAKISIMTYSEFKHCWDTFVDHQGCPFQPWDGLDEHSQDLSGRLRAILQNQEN
structure (smiles),measurement,setting,value
CCOc1cc(C)c(C(C)C)cc1S(=O)(=O)Nc1cccnc1,IC50,[1],18.9 µM (active)
COC(=O)N1CCC2(CCN(Cc3nccs3)CC2)CC1,AC50,Cytochrome P450 3A4,inconclusive
O=C(O)c1ccc(N2C(=O)CC(SC(=NCc3ccc4c(c3)OCO4)Nc3ccc(F)cc3)C2=O)cc1 (centres undefined),CC50,[2],32.4 µM (active)
same,EC50,[3],4.89 µM (active)
same,EC50,Streptococcus,29 µM (active)
same,IC50,CHO-K1,> 66.2 µM (inactive)
same,IC50,[4],23.2 µM (inactive)
same,IC50,[5],24.5 µM (inactive)
same,IC50,[6],14.3 µM (inactive)
same,IC50,cells,23.9 µM (active)
CCCCN1C=CC(=C2C(=O)c3ccccc3C2=O)C=C1,EC50,BJ [7],6.03 µM (active)
same,EC50,[8],0.356 µM (active)
same,EC50,BJ [9],7.56 µM (active)
same,EC50,BJ [10],> 150 µM (inconclusive)
same,EC50,[11],7.63 µM (active)
same,AC50,[12],0.921 µM (active)
same,AC50,A-375,20.6 µM (active)
COc1ccc2cc(C)c3nnc(SCC(=O)Nc4nc(-c5ccc(F)cc5)cs4)n3c2c1,EC50,[13],< 0.5 µM (active)
same,IC50,Cannabinoid receptor 2 [14],> 32 µM (inactive)
same,EC50,Cannabinoid receptor 2 [15],> 32 µM (inactive)
same,EC50,[16],0.164 µM (active)
same,IC50,Cannabinoid receptor 1,> 32 µM (inactive)
COc1ccc2c(c1)cc(C)c1nnc(SCC(=O)N(C)c3nc(-c4ccccc4)cs3)n12,IC50,Cannabinoid receptor 2 [14],> 32 µM (inactive)
same,EC50,Cannabinoid receptor 2 [15],> 32 µM (inactive)
same,EC50,[16],> 32 µM (inactive)
same,IC50,Cannabinoid receptor 1,> 32 µM (inactive)
Cc1nnc(N/N=C/c2ccc(O)c([N+](=O)[O-])c2)nc1O,EC50,"Troponin, cardiac muscle",> 71.5 µM (inactive)
Cc1cc(C)c(S(=O)(=O)Nc2ccc3ccccc3c2)c(C)c1,IC50,[17],> 100 µM (not active)
same,IC50,[1],> 100 µM (inactive)
O=c1c2ccccc2nc2n1C1(CCCCC1)Cc1ccccc1-2,IC50,[18],2.41 µM (active)
same,AC50,[19],2.06 µM (active)
Cc1ccc(C(=O)c2c[nH]c(C(=O)NCCCN3CCOCC3)c2)cc1,AC50,Cytochrome P450 3A4,inconclusive
Cc1nn(C(C)(C)C)c(OC(=O)c2cccs2)c1Sc1ccccc1,IC50,[18],5.36 µM (active)
S=c1[nH]nc(-c2ccco2)n1Cc1ccccc1,IC50,Beta-lactamase [20],> 59.6 µM (inactive)
same,IC50,Beta-lactamase [21],> 59.6 µM (inactive)
same,IC50,Beta-lactamase [22],> 59.6 µM (inactive)
same,IC50,[23],> 100 µM (inactive)
same,IC50,[24],2.89 µM (active)
same,AC50,[25],7.95 µM (active)
